The text below walks through data of patent US20240109881A1, “Heteroaryl Compounds as Ligand Directed Degraders of IRAK4” (Bristol-Myers Squibb Company, priority 2022, published 2024).

For this assay, the target named is T1, IRAK4 (Homo sapiens, UniProt Q9NWZ3).
T1 construct: endogenous in cells; host or cells: THP-1 cells
T1 sequence (Q9NWZ3 1-460): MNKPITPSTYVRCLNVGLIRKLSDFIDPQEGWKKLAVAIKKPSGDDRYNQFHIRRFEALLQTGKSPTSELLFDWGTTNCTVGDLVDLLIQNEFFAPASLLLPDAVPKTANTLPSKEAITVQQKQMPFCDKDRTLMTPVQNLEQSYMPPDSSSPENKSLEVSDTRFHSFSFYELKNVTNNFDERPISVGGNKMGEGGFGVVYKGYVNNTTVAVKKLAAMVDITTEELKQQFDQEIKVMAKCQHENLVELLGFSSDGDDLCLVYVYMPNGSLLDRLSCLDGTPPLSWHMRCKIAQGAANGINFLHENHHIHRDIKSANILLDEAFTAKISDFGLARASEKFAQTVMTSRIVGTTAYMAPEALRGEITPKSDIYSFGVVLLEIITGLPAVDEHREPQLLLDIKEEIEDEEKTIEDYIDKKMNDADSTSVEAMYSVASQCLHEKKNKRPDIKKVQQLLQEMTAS
As to the kind of experiment: ALE THP1 HTRF (Advanced Lipoxidation End Product THP1 Homogeneous Time Resolved Fluorescence). In kind it is cell-based. As to conditions: THP1 cells. A digest of the protocol: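 HTRF read-out of IRAK4 protein: anti-IRAK4 d2 and cryptate antibody pair added to BCA-normalized lysates, overnight dark room-temperature incubation. Lysis ran 45 min with shaking at room temperature; buffer, cryptate-only and negative controls included.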
Background: TR-FRET usually uses a lanthanide donor and a delayed reading to cut background.
In general, EC50 refers to the concentration giving half of the maximal effect. A lower EC50 goes with an effect from little substance. In the case of `CCC1(Nc2cc(-n3ncc4cc(C#N)cnc43)ncc2C(=O)N[C@H]2CC[C@H](CCN3CCN(c4ccc(C5CCC(=O)NC5=O)cc4)CC3)CC2)CC1` (stereo partly shown) [P-119], the “ALE THP1 HTRF YMIN” value came to 8.3% and a half-maximal effect (EC50) was put at 25 nM.
For `CN(C[C@H]1CC[C@H](NC(=O)c2cnc(-n3ncc4cc(C#N)cnc43)cc2NC2CC2)CC1)C1CCN(c2ccc3c(c2)CN(C2CCC(=O)NC2=O)C3=O)CC1` (stereo partly shown) [P-127], in that order: 24.5% and 8 nM.
In the same order, the values of `N#Cc1cnc2c(cnn2-c2cc(NC3CCCC3)c(C(=O)NC3CCC(O)(CN4CCN(c5ccc6c(c5)C(=O)N(C5CCC(=O)NC5=O)C6=O)CC4)CC3)cn2)c1` (stereo not shown) [P-30, 6-(5-cyano-1H-pyrazolo[3,4-b]pyridin-1-yl)-4-(cyclopentylamino)-N-((1s,4s)-4-((4-(2-(2,6-dioxopiperidin-3-yl)-1,3-dioxoisoindolin-5-yl)piperazin-1-yl)methyl)-4-hydroxycyclohexyl)nicotinamide] are 44.1% and 3320 nM.
In the same order, the values of `CC1(c2ccc(N3CCN(CCC4CCC(NC(=O)c5cnc(-n6ncc7cc(C#N)cnc76)cc5NC5CC5)CC4)CC3)cc2)CCC(=O)NC1=O` (single isomer, unassigned) [P-94] are 7.4% and 11 nM.
As for `N#Cc1cnc2c(cnn2-c2cc(NC3CCCC3)c(C(=O)NC3CCC(C(=O)N4CCC(c5ccc6c(c5)C(=O)N(C5CCC(=O)NC5=O)C6)CC4)CC3)cn2)c1` (stereo not shown) [P-14], the “ALE THP1 HTRF YMIN” value stood at 24.0% and a half-maximal response (EC50) required 95 nM.
In the case of `N#Cc1cnc2c(cnn2-c2cc(NC3CCCC3)c(C(=O)N[C@H]3CC[C@H](CN4CCN(c5ccc6c(c5)C(=O)N(C5CCC(=O)NC5=O)C6)CC4)CC3)cn2)c1` (stereo partly shown) [P-17], the “ALE THP1 HTRF YMIN” value is given as 24.6% and it took 13 nM to reach a half-maximal effect (EC50).
For `N#Cc1cnc2c(cnn2-c2cc(NC3CC3)c(C(=O)N[C@H]3CC[C@H](C(F)(F)CN4CCN(c5ccc(C6CCC(=O)NC6=O)cc5)CC4)CC3)cn2)c1` (stereo partly shown) [P-104, 6-(5-cyanopyrazolo[3,4-b]pyridin-1-yl)-4-(cyclopropylamino)-N-[4-[2-[4-[4-(2,6-dioxo-3-piperidyl)phenyl]piperazin-1-yl]-1,1-difluoro-ethyl]cyclohexyl]pyridine-3-carboxamide], in that order: 16.0% and 47 nM.
For `CC1(Nc2cc(-n3ncc4cc(C#N)c(N)nc43)ncc2-n2cc([C@H]3CC[C@H](CCN4CCN(c5ccc(C6CCC(=O)NC6=O)cc5)CC4)CC3)nn2)CC1` (stereo partly shown) [P-157], in that order: 10.0% and 2 nM.
In the same order, the values of `N#Cc1cnc2c(cnn2-c2cc(NC3CCCC3)c(C(=O)NC3CCC(C(=O)N4CCN(c5ccc6c(c5)C(=O)N(C5CCC(=O)NC5=O)C6)CC4)CC3)cn2)c1` (stereo not shown) [P-10] are 34.8% and 87 nM.
Regarding `N#Cc1cnc2c(cnn2-c2cc(NC3CC(F)(F)C3)c(C(=O)NC3CCC(CCN4CCN(c5ccc(C6CCC(=O)NC6=O)cc5)CC4)CC3)cn2)c1` (stereo not shown) [P-97], the “ALE THP1 HTRF YMIN” value came to 15.1% and the EC50 was found to be 88 nM.
For `CC(C)Nc1cc(Nc2ccc(C#N)cc2Cl)ncc1C(=O)N[C@H]1CC[C@H](CCN2CCN(c3ccc(C4CCC(=O)NC4=O)cc3)CC2)CC1` (stereo partly shown) [P-134], in that order: 20.9% and 94 nM.
In the same order, the values of `N#Cc1cnc2c(-c3cc(NC4CC4)c(C(=O)NC4CCC(CCN5CCN(c6ccc(C7CCC(=O)NC7=O)cc6)CC5)CC4)cn3)cnn2c1` (stereo not shown) [P-93] are 13.0% and 23 nM.
Take `N#Cc1cnc2c(cnn2-c2cc(NC[C@H]3CCCO3)c(C(=O)N[C@H]3CC[C@H](CCN4CCN(c5ccc(C6CCC(=O)NC6=O)cc5)CC4)CC3)cn2)c1` (stereo partly shown) [P-106]: the “ALE THP1 HTRF YMIN” value was 17.5% and the EC50 amounted to 246 nM.
As for `N#Cc1cnc2c(cnn2-c2cc(NC3CC3)c(C(=O)N[C@H]3CC[C@H](CCN4CC5(C4)CN(c4ccc(C6CCC(=O)NC6=O)cc4)C5)CC3)cn2)c1` (stereo partly shown) [P-124], the “ALE THP1 HTRF YMIN” value was 19.2% and a half-maximal response (EC50) required 46 nM.
For `C[C@H]1CN(c2ccc3c(c2)C(=O)N(C2CCC(=O)NC2=O)C3=O)C[C@H](C)N1CC1CCC(NC(=O)c2cnc(-n3ncc4cc(C#N)cnc43)cc2NC2CCCC2)CC1` (stereo partly shown) [P-37], in that order: 20.7% and 132 nM.
For `N#Cc1cnc2c(cnn2-c2cc(NC3CCCC3)c(C(=O)NC3CCC(CN4CCC(C(=O)Nc5ccc(C6CCC(=O)NC6=O)cc5)C(F)(F)C4)CC3)cn2)c1` (stereo not shown) [P-46], in that order: 31.5% and 74 nM.
For `N#Cc1cnc2c(cnn2-c2cc(NC3CC3)c(C(=O)NC3CCC(C(=O)N4CCN(c5ccc6c(c5)C(=O)N(C5CCC(=O)NC5=O)C6)CC4)CC3)cn2)c1` (stereo not shown) [P-22], in that order: 20.0% and 1110 nM.
In the case of `N#Cc1cnc2c(cnn2-c2cc(NC3CCC3)c(C(=O)NC3CCC(CCN4CCN(c5ccc(C6CCC(=O)NC6=O)cc5)CC4)CC3)cn2)c1` (stereo not shown) [P-82], the “ALE THP1 HTRF YMIN” value turned out to be 8.6% and the EC50 was 230 nM.
In the same order, the values of `C[C@H](C#N)Nc1cc(-n2ncc3cc(C#N)cnc32)ncc1C(=O)N[C@H]1CC[C@H](CCN2CCN(c3ccc(C4CCC(=O)NC4=O)cn3)[C@H](C)C2)CC1` (stereo partly shown) [P-152] are 15.8% and 20 nM.
In the same order, the values of `N#Cc1cnc2c(cnn2-c2cc(NC3(C#N)CC3)c(C(=O)N[C@H]3CC[C@H](CCN4CCN(c5ccc(C6CCC(=O)NC6=O)cc5)CC4)CC3)cn2)c1` (stereo partly shown) [P-122] are 10.4% and 80 nM.
For `CC1(Nc2cc(-n3ncc4cc(C#N)cnc43)ncc2C(=O)NC2CCC(CCN3CCN(c4ccc(C5CCC(=O)NC5=O)cc4)CC3)CC2)CC1` (stereo not shown) [P-76], in that order: 8.3% and 7 nM.
As to `C[C@H](C#N)Nc1cc(-n2ncc3cc(C#N)cnc32)ncc1C(=O)N[C@H]1CC[C@H](CCN2CCN(c3ccc(C4(C)CCC(=O)NC4=O)cc3)CC2)CC1` (stereo partly shown) [P-136], the “ALE THP1 HTRF YMIN” value is 7.4% and the response was half-maximal at 6 nM (EC50).
For `N#Cc1cnc2c(cnn2-c2cc(NC3CC3)c(C(=O)NC3CCC(CCN4CCN(c5ccc(C6CCC(=O)NC6=O)cn5)CC4)CC3)cn2)c1` (stereo not shown) [P-98], the “ALE THP1 HTRF YMIN” value is on record as 10.5% and the midpoint of the response, the EC50, lay at 17 nM.
For `N#Cc1cnc2c(cnn2-c2cc(NC3CC3)c(C(=O)N[C@H]3CC[C@H](OCC4CCN(c5ccc(C6CCC(=O)NC6=O)cc5)CC4)CC3)cn2)c1` (stereo partly shown) [P-88], in that order: 64.5% and 49 nM.
For `C[C@H](C#N)Nc1cc(-n2ncc3cc(C#N)cnc32)ncc1C(=O)N[C@H]1CC[C@H](CCN2CCN(c3ccc(C4CCC(=O)NC4=O)cc3)CC2)CC1` (stereo partly drawn) [P-91, 6-(5-Cyano-1H-pyrazolo[3,4-b]pyridin-1-yl)-4-(((R)-1-cyanoethyl)amino)-N-((1r,4r)-4-(2-(4-(4-(2,6-dioxopiperidin-3-yl)phenyl)piperazin-1-yl)ethyl)cyclohexyl)nicotinamide], in that order: 7.0% and 5 nM.
For `C[C@H]1CN(c2ccc(C3CCC(=O)NC3=O)cc2)CCN1CCC1CCC(NC(=O)c2cnc(-n3ncc4cc(C#N)cnc43)cc2NC2CCCC2)CC1` (stereo partly shown) [P-62], in that order: 6.6% and 70 nM.
